From patent US10981926B2 (Janssen Pharmaceutica NV, priority 2016, dated 2021)

Columns and labels:
[1] = test system: rGABA-gated Cl− channel; assay: GABA-Gated Cl Channel Antagonist Radioligand Binding Assay; design: species or system rat; conditions: 10 μM single point, [35S]-TBPS, cerebral cortex membrane homogenates
How it was run: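 Rat cerebral cortex membranes (120 μg protein) incubated 120 min at 22° C with 3 nM […] in 50 mM Na2HPO4/KH2PO4 pH 7.4, 500 mM NaCl; nonspecific binding defined with 20 μM picrotoxinin. Bound label counted after filtration; values are percent inhibition of specific binding at 10 μM compound.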

[2] = molecular target: T1, F876L mutant Androgen Receptor (AR-F876L) (Homo sapiens (Human), UniProt P10275, F877L); assay: LNCaP-AR-F876L ANT reporter assay (antagonist mode); type: cell-based; conditions: for IC50: pIC50 = −Log10(IC50 in Molar), read-out: LNCaP-AR-F876L ANT pIC50 (converted); for Emax: read-out: LNCaP-AR-F876L ANT MAX % Inh
T1 sequence (P10275 whole entry F877L): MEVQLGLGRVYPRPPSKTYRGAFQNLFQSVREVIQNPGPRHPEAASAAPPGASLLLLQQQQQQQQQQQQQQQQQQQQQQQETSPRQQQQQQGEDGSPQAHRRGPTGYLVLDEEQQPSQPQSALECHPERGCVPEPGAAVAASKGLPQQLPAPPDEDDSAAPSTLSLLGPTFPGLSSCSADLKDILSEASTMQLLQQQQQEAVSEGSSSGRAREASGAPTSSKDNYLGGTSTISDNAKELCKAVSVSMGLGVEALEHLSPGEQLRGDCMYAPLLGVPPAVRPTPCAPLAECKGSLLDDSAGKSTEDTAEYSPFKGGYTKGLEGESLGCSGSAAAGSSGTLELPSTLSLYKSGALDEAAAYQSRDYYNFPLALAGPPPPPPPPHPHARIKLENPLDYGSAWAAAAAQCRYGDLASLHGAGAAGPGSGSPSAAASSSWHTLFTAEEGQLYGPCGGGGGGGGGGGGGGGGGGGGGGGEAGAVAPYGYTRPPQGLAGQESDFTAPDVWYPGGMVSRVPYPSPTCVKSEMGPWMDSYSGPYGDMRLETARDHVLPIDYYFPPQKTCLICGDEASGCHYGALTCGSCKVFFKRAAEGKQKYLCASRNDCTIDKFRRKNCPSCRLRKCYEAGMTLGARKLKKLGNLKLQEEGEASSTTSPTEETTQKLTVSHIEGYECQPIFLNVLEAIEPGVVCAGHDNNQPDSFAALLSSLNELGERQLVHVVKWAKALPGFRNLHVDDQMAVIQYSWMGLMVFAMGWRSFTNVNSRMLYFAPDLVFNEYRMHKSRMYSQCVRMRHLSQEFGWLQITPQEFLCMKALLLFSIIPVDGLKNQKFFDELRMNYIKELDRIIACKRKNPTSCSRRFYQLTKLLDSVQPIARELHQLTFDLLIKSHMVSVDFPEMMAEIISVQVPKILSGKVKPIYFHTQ

[3] = molecular target: T1, F876L mutant Androgen Receptor (AR-F876L); assay: LNCaP-AR-F876L AG reporter assay (agonist mode); type: cell-based; conditions: for EC50: pEC50 = −Log10(EC50 in Molar), read-out: LNCaP-AR-F876L AG pEC50 (converted); for Emax: read-out: LNCaP-AR-F876L AG MAX % Stim
[4] = molecular target: T2, wild-type Androgen Receptor (AR-wt) (Homo sapiens (Human), UniProt P10275); assay: LNCaP-AR-wt ANT reporter assay (antagonist mode); type: cell-based; conditions: for IC50: pIC50 = −Log10(IC50 in Molar), read-out: LNCaP-AR-wt ANT pIC50 (converted); for Emax: read-out: LNCaP-AR-wt ANT MAX % Inh
T2 sequence (P10275 whole entry): as the sequence (P10275 whole entry F877L) above, with L877F counted along it

[5] = molecular target: T2, wild-type Androgen Receptor (AR-wt); assay: LNCaP-AR-wt AG reporter assay (agonist mode); type: cell-based; conditions: for EC50: pEC50 = −Log10(EC50 in Molar), read-out: LNCaP-AR-wt AG pEC50 (converted); for Emax: read-out: LNCaP-AR-wt AG MAX % Stim
[6] = maximum % inhibition of R1881 control response over the tested concentration range
[7] = maximum % stimulation (agonist response) over the tested concentration range
[8] = antagonist mode, maximum % inhibition of R1881 control response over tested concentration range
[9] = agonist mode, maximum % stimulation over tested concentration range

Row | Compound | rGABA-gated Cl− channel % inh @10 μM [1] [%] | IC50 ([2]; antagonist mode) [nM] | Emax [2, 6] [%] | EC50 ([3]; agonist mode) [nM] | Emax [3, 7] [%] | IC50 ([4]; antagonist mode) [nM] | Emax [4, 6] [%] | EC50 ([5]; agonist mode) [nM] | Emax [5, 7] [%] | Emax [2, 8] [%] | Emax [3, 9] [%] | Emax [4, 8] [%] | Emax [5, 9] [%]
1 | N#Cc1ncc(N2C(=O)C3(CCC3)N(c3ccc(OC4CCN(CCF)CC4)cc3)C2=S)cc1C(F)(F)F [Cpd 77, 5-[8-[4-[[1-(2-fluoroethyl)-4-piperidyl]oxy]phenyl]-5-oxo-7-thioxo-6,8-diazaspiro[3.4]octan-6-yl]-3-(trifluoromethyl)pyridine-2-carbonitrile] | 53.8 | 30.9 | 100 | > 15100 | 0.3 | 37.2 | 102 | > 15100 | 0.2 |  |  |  | 
2 | CN(C)C1CCC(Oc2ccc(N3C(=S)N(c4cnc(C#N)c(C(F)(F)F)c4)C(=O)C34CCC4)cc2)CC1 (stereo not drawn) [Cpd 81, 5-[8-[4-[4-(dimethylamino)cyclohexoxy]phenyl]-5-oxo-7-thioxo-6,8-diazaspiro[3.4]octan-6-yl]-3-(trifluoromethyl)pyridine-2-carbonitrile] | 28.8 | 17 | 101 | > 15100 | 0.1 | 28.2 | 102 | > 15100 | 0.4 |  |  |  | 
3 | Cc1cc(N2C(=O)C3(CCC3)N(c3ccc(OC4CCN(CCF)CC4)nc3)C2=S)cnc1C#N [Cpd 78, 5-[8-[6-[[1-(2-fluoroethyl)-4-piperidyl]oxy]-3-pyridyl]-5-oxo-7-thioxo-6,8-diazaspiro[3.4]octan-6-yl]-3-methyl-pyridine-2-carbonitrile] | 3.8 | 22.9 | 100 | > 15100 | 0 | 93.3 | 101 | > 15100 | 1.2 |  |  |  | 
4 | CC(C)(C)CCN1CCC(Oc2ccc(N3C(=S)N(c4cnc(C#N)c(C(F)(F)F)c4)C(=O)C34CCC4)cc2)CC1 [Cpd 34, 5-(5-(4-((1-(3,3-dimethylbutyl)piperidin-4-yl)oxy)phenyl)-8-oxo-6-thioxo-5,7-diazaspiro[3.4]octan-7-yl)-3-(trifluoromethyl)picolinonitrile] | 91.2 | 1260 | 89.7 | > 15100 | 0.2 | 3310 | 82.7 | > 15100 | -0.4 |  |  |  | 
5 | CN1CC(COc2ccc(N3C(=S)N(c4cnc(C#N)c(C(F)(F)F)c4)C(=O)C34CCC4)cc2)C1 [Cpd 59, 5-[8-[4-[(1-methylazetidin-3-yl)methoxy]phenyl]-5-oxo-7-thioxo-6,8-diazaspiro[3.4]octan-6-yl]-3-(trifluoromethyl)pyridine-2-carbonitrile] | 16.0 | 56.2 | 100 | > 15100 | 0.1 | 135 | 102 | > 15100 | 0 |  |  |  | 
6 | N#Cc1ncc(N2C(=O)C3(CCC3)N(c3ccc(OC4CCN(CC(F)(F)F)CC4)cc3)C2=S)cc1C(F)(F)F [Cpd 40, 5-[5-oxo-7-thioxo-8-[4-[[1-(2,2,2-trifluoroethyl)-4-piperidyl]oxy]phenyl]-6,8-diazaspiro[3.4]octan-6-yl]-3-(trifluoromethyl)pyridine-2-carbonitrile] | 67.5 | 1000 | 96 | > 15100 | 1.5 | 537 | 97.6 | > 15100 | 0.2 |  |  |  | 
7 | CCOC(=O)N1CCN(C(=O)c2ccc(N3C(=S)N(c4cnc(C#N)c(C(F)(F)F)c4)C(=O)C34CCC4)cc2)CC1 [Cpd 31, ethyl 4-[4-[6-[6-cyano-5-(trifluoromethyl)-3-pyridyl]-5-oxo-7-thioxo-6,8-diazaspiro[3.4]octan-8-yl]benzoyl]piperazine-1-carboxylate] | 79.0 | 617 | 87.1 | > 15100 | 0.1 | 1290 | 80.3 | > 15100 | 0.3 |  |  |  | 
8 | N#Cc1ncc(N2C(=O)C3(CCC3)N(c3ccc(OC4CCN(CC(F)(F)F)CC4)nc3)C2=S)cc1C(F)(F)F [Cpd 66, 5-[5-oxo-7-thioxo-8-[6-[[1-(2,2,2-trifluoroethyl)-4-piperidyl]oxy]-3-pyridyl]-6,8-diazaspiro[3.4]octan-6-yl]-3-(trifluoromethyl)pyridine-2-carbonitrile] | 83.0 | 45.7 | 95.5 | > 15100 | 0.9 | 49 | 99 | > 15100 | 0.5 |  |  |  | 
9 | COc1cc(N2C(=O)C3(CCC3)N(c3ccc(OC4CCNCC4)nc3)C2=S)cnc1C#N [Cpd 75, 3-methoxy-5-[5-oxo-8-[6-(4-piperidyloxy)-3-pyridyl]-7-thioxo-6,8-diazaspiro[3.4]octan-6-yl]pyridine-2-carbonitrile] | −32.5 | 89.1 | 101 | > 15100 | 0.1 | 148 | 102 | > 15100 | 0.2 |  |  |  | 
10 | Cc1cc(N2C(=O)C3(CCC3)N(c3ccc(OC4CCN(C)CC4)nc3)C2=S)cnc1C#N [Cpd 2, 3-methyl-5-[8-[6-[(1-methyl-4-piperidyl)oxy]-3-pyridyl]-5-oxo-7-thioxo-6,8-diazaspiro[3.4]octan-6-yl]pyridine-2-carbonitrile] | 1.6 | 123 | 99.9 | > 15100 | 0.2 | 245 | 101 | > 15100 | 0.5 |  |  |  | 
11 | CN1CCC(C(=O)c2ccc(N3C(=S)N(c4cnc(C#N)c(C(F)(F)F)c4)C(=O)C34CCC4)cc2)CC1 [Cpd 144, 5-[8-[4-(1-methylpiperidine-4-carbonyl)phenyl]-5-oxo-7-thioxo-6,8-diazaspiro[3.4]octan-6-yl]-3-(trifluoromethyl)pyridine-2-carbonitrile] | 42.3 | 363 | 99.9 | > 15100 | 0.6 | 1100 | 98.3 | > 15100 | 0.3 |  |  |  | 
12 | N#Cc1ncc(N2C(=O)C3(CCC3)N(c3ccc(OC4CCN(C5CC5)CC4)cc3)C2=S)cc1C(F)(F)F [Cpd 36, 5-[8-[4-[(1-cyclopropyl-4-piperidyl)oxy]phenyl]-5-oxo-7-thioxo-6,8-diazaspiro[3.4]octan-6-yl]-3-(trifluoromethyl)pyridine-2-carbonitrile] | 96.2 | 631 | 99.1 | > 15100 | 1 | 759 | 100 | > 15100 | -0.2 |  |  |  | 
13 | C#CCN1CCC(Oc2ccc(N3C(=S)N(c4cnc(C#N)c(C(F)(F)F)c4)C(=O)C34CCC4)cc2)CC1 [Cpd 107, 5-[5-oxo-8-[4-[(1-prop-2-ynyl-4-piperidyl)oxy]phenyl]-7-thioxo-6,8-diazaspiro[3.4]octan-6-yl]-3-(trifluoromethyl)pyridine-2-carbonitrile] | 87.2 | 24.5 | 97.5 | > 15100 | 1.9 | 22.9 | 101 | > 15100 | 0.5 |  |  |  | 
14 | CN1CCC(Oc2ccc(N3C(=S)N(c4cnc(C#N)c(C(F)(F)F)c4)C(=O)C34CCC4)cc2)CC1=O (racemic) [Cpd 189, (R,S)-5-[8-[4-[(1-methyl-2-oxo-4-piperidyl)oxy]phenyl]-5-oxo-7-thioxo-6,8-diazaspiro[3.4]octan-6-yl]-3-(trifluoromethyl)pyridine-2-carbonitrile] | 90.4 | 81.3 |  | > 15100 |  | 69.2 |  | > 15100 |  | 99.1 | 1.7 | 100 | 0
